# “And” between values parts separate entries of the source, which are not always exact repeats. Equal values may be shown once. Marks after values point to notes of the source that are not given here.
# Legend:
# Type in all cases: cell-based
# [1] = test system: Thermus scotoductus SE-1; test: Agar diffusion assay with cell free supernatant of producing strains; conditions: zone diameter relative to Nisin A wild type (100)
# Procedure: (§1) Agar diffusion assays were carried out in triplicate using nisin producing and indicator (T. thermophilus HB27 and T. scotoductus Se-1) strains. Both the producer and indicator strains were cultured as per conditions described above. One ml of overnight culture of indicators were added to 50ml of molten Castenholz agar, briefly swirled and poured. Wells were made using sterile glass pipette. To generate cell free supernatant from nisin producing strains, 10 mls of overnight cultures of the strains were centrifuged at 950g for 20 mins. The cell free supernatant was transferred to a sterile tube. 50 µl of cell free supernatant was added to wells described above. Plates were incubated at 55°C for 3 days and the zone of clearance measured.
# (§2) The cell free supernatant of nisin A and nisin variant producing L. lactis was used to determine the bioactivity of these lantibiotics against T. thermophilus HB27 and T. scotoductus SE-1 using agar diffusion assays, with the zone of clearance representing the bioactivity of the producing strain (i.e., representing a combination of the amount of the peptide produced and the specific activity of that peptide). […] Among the variants tested were those with altered N-terminal domains. The N-terminal domain of nisin is important for binding with the pyrophosphate moiety of lipid II to mediate pore formation in the cell membrane. Lysine (K) at position 12, which serves as a small flexible region between ring B and C, and is one of among the 5 positively charged residues (K12, K22, K34, H27, […]) of nisin A that contributes to its cationic nature and its attraction to the cell envelope.
# [2] = test system: Thermus thermophilus HB27; test: as above; conditions: zone diameter relative to Nisin A wild type (100)
# Procedure: as §1, §2
# [3] = test system: T. thermophilus HB27; test: Minimum inhibitory concentration assay (Thermus); conditions: pure peptide, mean of triplicate assays
# Procedure: (§3) Minimum inhibitory concentration (MIC) determinations for gram negative Thermus strains were carried out in triplicate in round bottom microtitre plates (Corning). 96 well microtitre plates were pre-treated with bovine serum albumin (BSA) prior to addition of the peptides. Briefly, to each well of the microtire plates 200 µl of d.H2O (filtered with 0.2 µm filter) containing 1% (w/w) BSA was added and incubated at 37°C for 30 mins. The wells were washed with 200 µl of IX phosphate buffered saline (PBS) for 2 times after removing 1% BSA d.H2O. 100 µl of growth media, i.e., Castenholz, was added to each well. […] Target strains were grown overnight as per conditions mention above, 0.5 ml of overnight was subcultured in to 10 mls of fresh Castenholz medium and allowed to grow to an OD600 of ∼0.5. 20µl of this subculture was added to 980µl of media, 150µl of this dilution added to 14.85 ml of growth media. 100µl of this dilution added to each well resulting in a final inoculum of ∼10^5 cfu/ml in 200µl. The plates were incubated at 55° C for 3 days and the MIC was determined as the lowest concentration at which no growth was visible.
# (§4) The bioactivity of cell-free supernatant can be influenced by altered diffusion rates, solubility, production or specific activity. To determine to what extent, if any, the bioactivity noted above is due to increased specific activity, nisin A (control) and the derivatives were purified and their molecular weights confirmed by MALDI TOF mass spectrometry (Table: 6) (Figure: 4). These peptides were used to perform minimum inhibitory concentration assays against six Thermus strains, i.e., T. thermophilus HB27, T. scotoductus SE-1, T. rehai, T. oshimai, T. aquaticus and T. brockianus.
# [4] = test system: T. aquaticus; test: Minimum inhibitory concentration assay (Thermus); conditions: for MIC: pure peptide, mean of triplicate assays
# Procedure: as §3, §4
# [5] = test system: T. scotoductus SE-1; test: Minimum inhibitory concentration assay (Thermus); conditions: for MIC: pure peptide, mean of triplicate assays
# Procedure: as §3, §4
# [6] = test system: T. oshimai; test: Minimum inhibitory concentration assay (Thermus); conditions: pure peptide, mean of triplicate assays
# Procedure: as §3, §4
# [7] = test system: T. rehai; test: Minimum inhibitory concentration assay (Thermus); conditions: for MIC: pure peptide, mean of triplicate assays
# Procedure: as §3, §4
# [8] = test system: T. brockianus; test: Minimum inhibitory concentration assay (Thermus); conditions: pure peptide, mean of triplicate assays
# Procedure: as §3, §4
SMILES,% of wild type [1],% difference [2],MIC [3] [µM],MIC [4],MIC [5] [µM],MIC [6] [µM],MIC [7],MIC [8] [µM],fold better activity than nisin A [5] [fold],fold better activity than nisin A [4] [fold],fold better activity than nisin A [7] [fold]
C=C(NC(=O)[C@@H](NC(=O)[C@H](Cc1c[nH]cn1)NC(=O)[C@@H](NC(=O)[C@H](CO)NC(=O)[C@@H]1CS[C@@H](C)[C@H]2NC(=O)[C@H](C)NC(=O)[C@H](NC(=O)[C@H](CCCCN)NC(=O)[C@H](CCSC)NC(=O)[C@H](CO)NC(=O)[C@@H]3CS[C@@H](C)[C@@H](NC(=O)[C@H](CCCCN)NC(=O)[C@@H]4CS[C@@H](C)[C@@H](NC(=O)[C@@H]5CSC[C@@H](NC(=O)/C(=C/C)NC(=O)[C@@H](N)[C@@H](C)CC)C(=O)N[C@@H]([C@@H](C)CC)C(=O)NC(=C)C(=O)N[C@@H](CC(C)C)C(=O)N5)C(=O)N5CCC[C@H]5C(=O)NCC(=O)N4)C(=O)NCC(=O)N[C@@H](C)C(=O)N[C@@H](CC(C)C)C(=O)N[C@@H](CCSC)C(=O)NCC(=O)N3)[C@H](C)SC[C@H](NC2=O)C(=O)N[C@@H](Cc2c[nH]cn2)C(=O)N1)[C@@H](C)CC)C(C)C)C(=O)N[C@@H](CCCCN)C(=O)O [N20S],112%,119%,0.0039,0.0078 µM,0.3125,0.000975,0.00195 µM,0.0156,,,
C=C(NC(=O)[C@@H](NC(=O)[C@H](Cc1c[nH]cn1)NC(=O)[C@@H](NC(=O)[C@H](CO)NC(=O)[C@@H]1CS[C@@H](C)[C@H]2NC(=O)[C@H](C)NC(=O)[C@H](NC(=O)[C@H](CCCCN)NC(=O)[C@H](Cc3ccccc3)NC(=O)[C@H](CC(N)=O)NC(=O)[C@@H]3CS[C@@H](C)[C@@H](NC(=O)[C@H](CCCCN)NC(=O)[C@@H]4CS[C@@H](C)[C@@H](NC(=O)[C@@H]5CSC[C@@H](NC(=O)/C(=C/C)NC(=O)[C@@H](N)[C@@H](C)CC)C(=O)N[C@@H]([C@@H](C)CC)C(=O)NC(=C)C(=O)N[C@@H](CC(C)C)C(=O)N5)C(=O)N5CCC[C@H]5C(=O)NCC(=O)N4)C(=O)NCC(=O)N[C@@H](C)C(=O)N[C@@H](CC(C)C)C(=O)N[C@@H](CCSC)C(=O)NCC(=O)N3)[C@H](C)SC[C@H](NC2=O)C(=O)N[C@@H](Cc2c[nH]cn2)C(=O)N1)[C@@H](C)CC)C(C)C)C(=O)N[C@@H](CCCCN)C(=O)O [M21F],106%,125%,0.0039,0.0039 µM,0.0312,0.00195,0.000975 µM,0.0078,,,
C=C(NC(=O)[C@@H](NC(=O)[C@H](Cc1c[nH]cn1)NC(=O)[C@@H](NC(=O)[C@H](CO)NC(=O)[C@@H]1CS[C@@H](C)[C@H]2NC(=O)[C@H](C)NC(=O)[C@H](NC(=O)[C@H](CCCCN)NC(=O)[C@H](CCSC)NC(=O)[C@H](CC(N)=O)NC(=O)[C@@H]3CS[C@@H](C)[C@@H](NC(=O)[C@H](CO)NC(=O)[C@@H]4CS[C@@H](C)[C@@H](NC(=O)[C@@H]5CSC[C@@H](NC(=O)/C(=C/C)NC(=O)[C@@H](N)[C@@H](C)CC)C(=O)N[C@@H]([C@@H](C)CC)C(=O)NC(=C)C(=O)N[C@@H](CC(C)C)C(=O)N5)C(=O)N5CCC[C@H]5C(=O)NCC(=O)N4)C(=O)NCC(=O)N[C@@H](C)C(=O)N[C@@H](CC(C)C)C(=O)N[C@@H](CCSC)C(=O)NCC(=O)N3)[C@H](C)SC[C@H](NC2=O)C(=O)N[C@@H](Cc2c[nH]cn2)C(=O)N1)[C@@H](C)CC)C(C)C)C(=O)N[C@@H](CCCCN)C(=O)O [K12S],123%,125%,0.0312,0.0312 µM,0.0312,0.0156,0.0156 µM,0.0312,2,,
C=C(NC(=O)[C@@H](NC(=O)[C@H](Cc1c[nH]cn1)NC(=O)[C@@H](NC(=O)[C@H](CO)NC(=O)[C@@H]1CS[C@@H](C)[C@H]2NC(=O)[C@H](C)NC(=O)[C@H](NC(=O)[C@H](CCCCN)NC(=O)[C@H](CCSC)NC(=O)[C@H](CC(N)=O)NC(=O)[C@@H]3CS[C@@H](C)[C@@H](NC(=O)[C@H](CCSC)NC(=O)[C@@H]4CS[C@@H](C)[C@@H](NC(=O)[C@@H]5CSC[C@@H](NC(=O)/C(=C/C)NC(=O)[C@@H](N)[C@@H](C)CC)C(=O)N[C@@H]([C@@H](C)CC)C(=O)NC(=C)C(=O)N[C@@H](CC(C)C)C(=O)N5)C(=O)N5CCC[C@H]5C(=O)NCC(=O)N4)C(=O)NCC(=O)N[C@@H](C)C(=O)N[C@@H](CC(C)C)C(=O)N[C@@H](CCSC)C(=O)NCC(=O)N3)[C@H](C)SC[C@H](NC2=O)C(=O)N[C@@H](Cc2c[nH]cn2)C(=O)N1)[C@@H](C)CC)C(C)C)C(=O)N[C@@H](CCCCN)C(=O)O [K12M],118%,118%,0.0156,0.0156 µM,0.125,0.0156,0.0078 µM,0.0625,,,
C=C(NC(=O)[C@@H](NC(=O)[C@H](Cc1c[nH]cn1)NC(=O)[C@@H](NC(=O)[C@H](CO)NC(=O)[C@@H]1CS[C@@H](C)[C@H]2NC(=O)[C@H](C)NC(=O)[C@H](NC(=O)[C@H](CCCCN)NC(=O)[C@H](CCSC)NC(=O)[C@H](CC(N)=O)NC(=O)[C@@H]3CS[C@@H](C)[C@@H](NC(=O)[C@H](Cc4ccc(O)cc4)NC(=O)[C@@H]4CS[C@@H](C)[C@@H](NC(=O)[C@@H]5CSC[C@@H](NC(=O)/C(=C/C)NC(=O)[C@@H](N)[C@@H](C)CC)C(=O)N[C@@H]([C@@H](C)CC)C(=O)NC(=C)C(=O)N[C@@H](CC(C)C)C(=O)N5)C(=O)N5CCC[C@H]5C(=O)NCC(=O)N4)C(=O)NCC(=O)N[C@@H](C)C(=O)N[C@@H](CC(C)C)C(=O)N[C@@H](CCSC)C(=O)NCC(=O)N3)[C@H](C)SC[C@H](NC2=O)C(=O)N[C@@H](Cc2c[nH]cn2)C(=O)N1)[C@@H](C)CC)C(C)C)C(=O)N[C@@H](CCCCN)C(=O)O [K12Y],74%,94%,0.0156,26.4 µg/L and 0.0078 µM,0.625,0.0156,6.6 µg/L and 0.00195 µM,0.0312,,2,4
C=C(NC(=O)[C@@H](NC(=O)[C@H](Cc1c[nH]cn1)NC(=O)[C@@H](NC(=O)[C@H](CO)NC(=O)[C@@H]1CS[C@@H](C)[C@H]2NC(=O)[C@H](C)NC(=O)[C@H](NC(=O)[C@H](CCCCN)NC(=O)[C@H](CCSC)NC(=O)[C@H](CC(N)=O)NC(=O)[C@@H]3CS[C@@H](C)[C@@H](NC(=O)[C@@H](NC(=O)[C@@H]4CS[C@@H](C)[C@@H](NC(=O)[C@@H]5CSC[C@@H](NC(=O)/C(=C/C)NC(=O)[C@@H](N)[C@@H](C)CC)C(=O)N[C@@H]([C@@H](C)CC)C(=O)NC(=C)C(=O)N[C@@H](CC(C)C)C(=O)N5)C(=O)N5CCC[C@H]5C(=O)NCC(=O)N4)[C@@H](C)O)C(=O)NCC(=O)N[C@@H](C)C(=O)N[C@@H](CC(C)C)C(=O)N[C@@H](CCSC)C(=O)NCC(=O)N3)[C@H](C)SC[C@H](NC2=O)C(=O)N[C@@H](Cc2c[nH]cn2)C(=O)N1)[C@@H](C)CC)C(C)C)C(=O)N[C@@H](CCCCN)C(=O)O [K12T],140* (0.001) %,148* (.001) %,0.0156,0.0312 µM,0.0625,0.0312,0.0156 µM,0.0625,,,
